Assays:
[1] = test system: mouse monoclonal anti-THC antibody; assay: Interference of free 5-pentylresorcinol with antibody binding to immobilised 5-pentylresorcinol-macromolecule conjugates; settings: 5-pentylresorcinol in free solution
[2] = test system: antibodies raised to THC-COOH coupled to a carrier protein via the phenolic group at C1; settings: relative to THC-COOH; commercially available assay; cited from earlier work
[3] = test system: gold-labelled mouse monoclonal anti-THC antibody; assay: Lateral flow immunochromatography test for cannabis, immobilised BSA-THC conjugate, spiked oral fluid, Cozart Rapiscan reader; settings: lowest concentration in spiked drug-free oral fluid giving a positive signal on the reader
[4] = test system: gold-labelled mouse monoclonal anti-THC antibody; assay: Lateral flow immunochromatography test for cannabis, immobilised BSA-CAN (5-pentylresorcinol/BSA) conjugate, spiked oral fluid, Cozart Rapiscan reader; settings: for Detectable level by competitive immunoassay: 5-pentylresorcinol conjugate with commercial anti-THC antibody; for Concentration giving positive Cozart Rapiscan Response: immobilised conjugate BSA-CAN, lowest concentration in spiked drug-free oral fluid giving a positive signal on the reader

SMILES	Interference with binding of anti-THC antibody to immobilised conjugate [1]	Cross-reactivity [2] [%]	Concentration giving positive Cozart Rapiscan Response [3] [ng/mL]	Detectable level by competitive immunoassay [4]	Concentration giving positive Cozart Rapiscan Response [4] [ng/mL]	Increase of sensitivity of detection with BSA-CAN versus BSA-THC ([4]; lateral flow strips, BSA-CAN compared with BSA-THC)	Sensitivity of detection compared with the parent drug THC ([4]; 5-pentylresorcinol conjugate and anti-THC antibody combination)
CCCCCc1cc(O)cc(O)c1 [5-pentylresorcinol]	does not interfere						
CCCCCc1cc(O)c2c(c1)OC(C)(C)[C@@H]1CCC(C)=C[C@@H]21 [THC, Delta-9-tetrahydrocannabinol]		5	200	≤ 20 ng/mL	20	about 10 fold	
CCCCCc1cc(O)c2c(c1)OC(C)(C)[C@@H]1CCC(C(=O)O)=C[C@@H]21 [THC—COOH, 11-nor-9-carboxy-delta-9-THC]			10	about 1.0 ng/ml	1.0		
CCCCCc1cc(O)c2c(c1)OC(C)(C)[C@@H]1CCC(CO)=C[C@@H]21 [THC—OH, 11-hydroxy-delta-9-THC]			200		20		comparable sensitivity to the parent drug
